From patent US10281463B2, “Methods of determining cellular phenotypes” (Technion Research & Development Foundation Limited, priority 2015, dated 2019)

Tests used:
E. coli [1] = experiment: Antibiotic susceptibility testing of E. coli growth on photonic microarrays diffraction grating (relative EOT shift over time); type: cell-based; details: for Cross comparison of antibiotic effect at the same concentration (type of effect): 5 μg/mL of respective antibiotic, E. coli, FIG. 17; for MIC: Escherichia coli, E. coli proliferation on photonic microarrays diffraction grating, antibiotic introduced at time 0 at increasing concentrations, read-out: MIC (minimal inhibitory concentration) observed from EOT growth curves
Source text: A SiPA placed in a flow-device having an inlet and an outlet. […] Fluid containing bacteria is introduced through the inlet. Light reflected from the top and bottom of the pores is collected by the optical setup. The phase delay between the incident and the reflected light beams is proportional to the depth (L) of the pores, and the refractive index of the medium filling the pores. The presence of bacterial cells in the pores increase the refractive index of the pores. Thus, the phase delay of the reflected light in the presence of the bacteria differs from the phase delay of the reflected light in the absence of the bacteria, so that analysis of the light collected by the optical setup can provide indication regarding the phenotype of the cells.
The FFT provides the value (2 nL), where L is the average depth of the pores and n is their refractive index. This quantity is also referred to as the Effective Optical Thickness (EOT). The measured shift in the EOT value is a function of the change in the refraction index of the pole: ΔEOT/EOT0=2(Δn/n0)L, where n0 is the refractive index of the pores before the introduction of the bacteria into the pores, Δn is the change in the refractive index as a result of the introduction of the cells into the compartments, and EOT0 is the EOT before introducing the cells into the compartments. Δn is thus correlated with the pore's volume fraction occupied by bacteria cells.
Types of optical kinetic profiles made by bacterial cells on photonic microarrays diffraction grating (e.g., SiPA) include, without limitation, • 1. Bacteria cells are seeded into the pores/structures. Full growth media is supplied to the cells until a growth curve is established. • a. An anti-proliferation drug (bacteriostatic/antibiotics) is added to the media (see FIG. 7) and the correlation of EOT growth curve and drug concentration is analyzed. The MIC (minimal inhibitory concentration) is determined when the EOT shift becomes null. • b. If the drug is later remove from the media (see FIG. 8), the cell growth may resume, if the drug effect is reversible. • c. If the drug is bactericidal or its bacteriostatic effect is irreversible, then the EOT curve will retract as dead cells disintegrate and exit the pores (see FIG. 8). • d. If the growth media if deficient with critical nutrient or factor, then EOT growth curve will decline in relation to the deficiency (see FIG. 9). • 2. Bacteria suspension is introduced to the photonic microarrays diffraction grating under constant flow conditions, in salt buffer solution. • a. If the suspension contains an anti-attachment drug/factor that will affect pore/structure colonization, then correlation of EOT curve and drug concentration can be analyzed (see FIG. 10). • b. Once a stable EOT curve is established, the bacteria suspension is replaced with clean buffer to challenge the bacteria adhesion. If cells are rinsed out of the pores, EOT plot will retract (see FIG. 11).

E. coli [2] = experiment: E. coli colonization of SiPA as a function of surface functionality (rate of EOT shift); type: cell-based; details: FIG. 12A
Method: The method includes the continuous or rapid serial monitoring of the light interferometry spectra obtained from a surface with reflective periodic topography (PRT), prior, during and following the controlled introduction of bacterial suspensions to it and/or addition of drugs/substances. Said interferometry spectra is analyzed (for example by fast Fourier transform) to reveal the rate of optical shift, e.g., the time-dependent alterations in the reflected light properties of said PRT, inflicted by the behavior of the cells (for example settling, adhering, migrating or proliferating).
Types of optical kinetic profiles made by bacterial cells on photonic microarrays diffraction grating (e.g., SiPA) include, without limitation, • 1. Bacteria cells are seeded into the pores/structures. Full growth media is supplied to the cells until a growth curve is established. • a. An anti-proliferation drug (bacteriostatic/antibiotics) is added to the media (see FIG. 7) and the correlation of EOT growth curve and drug concentration is analyzed. The MIC (minimal inhibitory concentration) is determined when the EOT shift becomes null. • b. […] If the suspension contains an anti-attachment drug/factor that will affect pore/structure colonization, then correlation of EOT curve and drug concentration can be analyzed (see FIG. 10). • b. […]

| Compound | Cross comparison of antibiotic effect at the same concentration (type of effect) (E. coli [1]) | MIC (E. coli [1]) [µg/mL] | Effect of WGA ligand in the suspension on WGA-improved colonization (E. coli [2]; NAG incorporated in the E. coli suspension, WGA-coated SiPA) | Improvement of E. Coli colonization over neat SiO2 or albumin (E. coli [2]; SiPA coated with WGA) [times] |
| --- | --- | --- | --- | --- |
| CO/N=C(\C(=O)N[C@@H]1C(=O)N2C(C(=O)O)=C(CSc3nc(=O)c(=O)[nH]n3C)CS[C@H]12)c1csc(N)n1 [Ceftriaxone Sodium] | bactericidal | 0.005 to 0.05 | – | – |
| O=C(O)c1cn(C2CC2)c2cc(N3CCNCC3)c(F)cc2c1=O [Ciprofloxacin] | bacteriostatic | 0.005 to 0.05 | – | – |
| CC(=O)N[C@@H]1[C@@H](O)[C@H](O)[C@@H](CO)O[C@@H]1O [NAG] | – | – | completely eliminate this effect | – |
| COc1cc(Cc2cnc(N)nc2N)cc(OC)c1OC [Trimethoprim] | below the MIC concentration | 5 to 50 | – | – |
| Wheat-germ agglutinin [WGA] | – | – | – | 5 |
